{"source": "patent US8729091B2", "about": "“4-phenoxy-nicotinamide or 4-phenoxy-pyrimidine-5-carboxamide compounds” (Hoffmann-La Roche Inc., priority 2010, dated 2014)", "biological_target": "T1, human GPBAR1 receptor (Homo sapiens, UniProt Q8TDU6)", "T1 construct": "expressed in transfected cells", "T1 sequence (Q8TDU6 1-330)": "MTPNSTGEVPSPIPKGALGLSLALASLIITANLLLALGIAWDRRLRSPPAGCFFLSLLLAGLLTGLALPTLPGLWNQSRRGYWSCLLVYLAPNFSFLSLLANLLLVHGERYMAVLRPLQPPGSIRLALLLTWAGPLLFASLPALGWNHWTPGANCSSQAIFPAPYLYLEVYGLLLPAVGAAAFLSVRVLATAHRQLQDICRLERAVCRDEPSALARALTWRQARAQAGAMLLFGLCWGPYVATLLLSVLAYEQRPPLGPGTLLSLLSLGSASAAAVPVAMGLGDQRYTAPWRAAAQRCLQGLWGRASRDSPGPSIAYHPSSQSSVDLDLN", "assay": "functional cAMP assay in CHO-dhfr(minus) cells expressing human GPBAR1 receptors", "format": "cell-based", "details": "cAMP increase (TR-FRET) in CHO-dhfr(minus) cells expressing human GPBAR1; compounds incubated 30 min at 30° C.", "description": "The final clone was verified by DNA sequence analysis. The plasmid was transfected into CHO cells deficient in dihydrofolate reductase activity (CHO-dhfr−) using Lipofectamine plus (Invitrogen). Clones were isolated in limited dilution conditions and identified by activities in the cAMP assay using lithocholic acid as agonist.\nThe growth medium was exchanged with Krebs Ringer Bicarbonate buffer with 1 mM IBMX and incubated at 30° C. for 30 min. Compounds were added to a final assay volume of 100 μl and incubated for 30 min at 30° C. […] The time-resolved energy transfer is measured by a TRF reader (Evotec Technologies GmbH, Hamburg Germany), equipped with a ND:YAG laser as excitation source.\nEC50 values were determined using Activity Base analysis (ID Business Solution, Limited). […] Specificity for GPBAR1 was tested in non-transfected CHO cells in the same assay as above.", "data": [{"smiles": "O=C(c1cnccc1Oc1cc(Cl)ccc1Cl)N1CCCc2cc(F)c(F)cc21", "note": "[Example 2, [4-(2,5-Dichloro-phenoxy)-pyridin-3-yl]-(6,7-difluoro-3,4-dihydro-2H-quinolin-1-yl)-methanone]", "values": [{"measurement": "EC50", "result": 100, "unit": "nM"}]}, {"smiles": "O=C(c1cnccc1Oc1cc(Cl)ccc1Cl)N1CCNc2ccccc21", "note": "[Example 3, [4-(2,5-Dichloro-phenoxy)-pyridin-3-yl]-(3,4-dihydro-2H-quinoxalin-1-yl)-methanone]", "values": [{"measurement": "EC50", "result": 100, "unit": "nM"}]}, {"smiles": "CN1CCN(C(=O)c2cnccc2Oc2cc(Cl)ccc2Cl)c2ccccc21", "note": "[Example 4, [4-(2,5-Dichloro-phenoxy)-pyridin-3-yl]-(4-methyl-3,4-dihydro-2H-quinoxalin-1-yl)-methanone]", "values": [{"measurement": "EC50", "result": 3, "unit": "nM"}]}, {"smiles": "CCOC(=O)C1CC1CN1CCN(C(=O)c2cnccc2Oc2cc(Cl)ccc2Cl)c2ccccc21", "note": "(stereo not shown) [Example 5, 2-{4-[4-(2,5-Dichloro-phenoxy)-pyridine-3-carbonyl]-3,4-dihydro-2H-quinoxalin-1-ylmethyl}-cyclopropanecarboxylic acid ethyl ester]", "values": [{"measurement": "EC50", "result": 1800, "unit": "nM"}]}, {"smiles": "O=C(c1cnccc1Oc1cc(Cl)ccc1Cl)N1CCN(CC2CC2)c2ccccc21", "note": "[Example 6, (4-Cyclopropylmethyl-3,4-dihydro-2H-quinoxalin-1-yl)-[4-(2,5-dichloro-phenoxy)-pyridin-3-yl]-methanone]", "values": [{"measurement": "EC50", "result": 3, "unit": "nM"}]}, {"smiles": "CS(=O)(=O)N1CCN(C(=O)c2cnccc2Oc2cc(Cl)ccc2Cl)c2ccccc21", "note": "[Example 7, [4-(2,5-Dichloro-phenoxy)-pyridin-3-yl]-(4-methanesulfonyl-3,4-dihydro-2H-quinoxalin-1-yl)-methanone]", "values": [{"measurement": "EC50", "result": 300, "unit": "nM"}]}, {"smiles": "O=C(c1cnccc1Oc1cc(Cl)ccc1Cl)N1CCN(C2CC2)c2cc(Cl)c(F)cc21", "note": "[Example 9, (6-Chloro-4-cyclopropyl-7-fluoro-3,4-dihydro-2H-quinoxalin-1-yl)-[4-(2,5-dichloro-phenoxy)-pyridin-3-yl]-methanone]", "values": [{"measurement": "EC50", "result": 50, "unit": "nM"}]}, {"smiles": "O=C(c1c[n+]([O-])ccc1Oc1cc(Cl)ccc1Cl)N1CCCc2ccccc21", "note": "[Example 10, [4-(2,5-Dichloro-phenoxy)-1-oxy-pyridin-3-yl]-(3,4-dihydro-2H-quinolin-1-yl)-methanone]", "values": [{"measurement": "EC50", "result": 700, "unit": "nM"}]}, {"smiles": "O=C(c1cnccc1Oc1cc(Cl)ccc1Cl)N1CCN(C2CC2)c2cc(Cl)ccc21", "note": "[Example 11, (6-Chloro-4-cyclopropyl-3,4-dihydro-2H-quinoxalin-1-yl)-[4-(2,5-dichloro-phenoxy)-pyridin-3-yl]-methanone]", "values": [{"measurement": "EC50", "result": 10, "unit": "nM"}]}, {"smiles": "COc1ccc(F)cc1N(C)C(=O)c1cnccc1Oc1cc(Cl)ccc1Cl", "note": "[Example 12, 4-(2,5-Dichloro-phenoxy)-N-(5-fluoro-2-methoxy-phenyl)-N-methyl-nicotinamide]", "values": [{"measurement": "EC50", "result": 100, "unit": "nM"}]}, {"smiles": "Cc1ccccc1N(C)C(=O)c1cnccc1Oc1cc(Cl)ccc1Cl", "note": "[Example 13, 4-(2,5-Dichloro-phenoxy)-N-methyl-N-o-tolyl-nicotinamide]", "values": [{"measurement": "EC50", "result": 200, "unit": "nM"}]}, {"smiles": "COc1ccccc1N(C)C(=O)c1cnccc1Oc1cc(Cl)ccc1Cl", "note": "[Example 14, 4-(2,5-Dichloro-phenoxy)-N-(2-methoxy-phenyl)-N-methyl-nicotinamide]", "values": [{"measurement": "EC50", "result": 100, "unit": "nM"}]}, {"smiles": "COc1ncccc1N(C)C(=O)c1cnccc1Oc1cc(Cl)ccc1Cl", "note": "[Example 15, 4-(2,5-Dichloro-phenoxy)-N-(2-methoxy-pyridin-3-yl)-N-methyl-nicotinamide]", "values": [{"measurement": "EC50", "result": 100, "unit": "nM"}]}, {"smiles": "CN(C)c1ccccc1N(C)C(=O)c1cnccc1Oc1cc(Cl)ccc1Cl", "note": "[Example 16, 4-(2,5-Dichloro-phenoxy)-N-(2-dimethylamino-phenyl)-N-methyl-nicotinamide]", "values": [{"measurement": "EC50", "result": 40, "unit": "nM"}]}, {"smiles": "CN(C(=O)c1cnccc1Oc1cc(Cl)ccc1Cl)c1ccccc1N1CCCCC1", "note": "[Example 17, 4-(2,5-Dichloro-phenoxy)-N-methyl-N-(2-piperidin-1-yl-phenyl)-nicotinamide]", "values": [{"measurement": "EC50", "result": 1900, "unit": "nM"}]}, {"smiles": "CN(C(=O)c1cnccc1Oc1cc(Cl)ccc1Cl)c1cc(C(F)(F)F)cc(C(F)(F)F)c1", "note": "[Example 18, N-(3,5-Bis-trifluoromethyl-phenyl)-4-(2,5-dichloro-phenoxy)-N-methyl-nicotinamide]", "values": [{"measurement": "EC50", "result": 1400, "unit": "nM"}]}]}
